Measurements: PubChem BioAssay (NCI)
Where “and” joins values, the source holds several entries; their conditions need not be identical. Identical values can stand only once.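 Following 48 hours of exposure in 96-well plates, responses at five concentrations were used to interpolate endpoints linearly. GI50 marks 50% less growth. TGI marks complete inhibition of growth.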

Assays:
Assay in all cases: DTP human tumour cell line panel, 48 h
[1] = system: BT-549 breast
[2] = system: HS 578T breast
[3] = system: MCF7 breast
[4] = system: MDA-MB-435
[5] = system: PC-3 prostate
[6] = system: DMS 114 small cell lung
[7] = system: KM20L2 colon

| Compound | GI50 [1] [µM] | TGI [1] | GI50 [2] [µM] | TGI [2] [µM] | GI50 [3] | TGI [3] | GI50 [4] [µM] | TGI [4] | GI50 [5] [µM] | TGI [5] [µM] | TGI [6] [µM] | TGI [7] [µM] | GI50 [6] [µM] | GI50 [7] [µM] |
| --- | --- | --- | --- | --- | --- | --- | --- | --- | --- | --- | --- | --- | --- | --- |
| CCC(c1cccc(O)c1)C(CC)c1cccc(O)c1 (configuration not stated) | 1.09 | 14.3 µM | 1.96 | 9.77 | 1.62 µM | 8.04 µM | 2.15 | 6.44 µM | 2.28 | 12.5 | – | – | – | – |
| CC(=O)O[C@@H]1C2C(=O)OC(=O)C2C2CCC[C@]23O[C@H]13 (some centres not stated) | – | – | – | – | – | – | – | – | – | – | > 100 | > 100 | – | – |
| COc1cc(Br)c(C=Nc2cccc3ccc(OS(=O)(=O)c4cccc([N+](=O)[O-])c4)cc23)cc1OC | – | – | – | – | – | – | – | – | – | – | > 100 | – | – | – |
| Oc1ccccc1-c1nc2c3ccccc3c3ccccc3c2[nH]1 | 9.06 | 21.7 µM | 12.4 | 29.7 | 1.99 µM | 13.4 µM | 6.23 | 18.7 µM | 3.49 | 14.8 | – | – | – | – |
| Nc1ccc(S(=O)(=O)NCc2nccs2)cc1 | – | 45.3 µM | – | 68.4 | – | 61.4 µM | – | 38.8 µM | – | > 100 | – | – | – | – |
| c1cc(CNC2C3CCC(C3)C2c2c[nH]c3ccccc23)cc(CNC2C3CCC(C3)C2c2c[nH]c3ccccc23)c1 (configuration not stated) | – | 3.24 µM | – | 3.32 | – | – | – | – | – | 2.7 | – | – | – | – |
| CNC(=S)N/N=C/c1ccc([N+](=O)[O-])s1 | – | > 10 µM | – | > 10 | – | – | – | > 10 µM | – | > 10 | – | – | – | – |
| Cc1c2ccc(N(C)c3ccnc(Nc4cccc(S(N)(=O)=O)c4)n3)cc2nn1C | 9.48 | > 25 µM | 6.8 | > 25 | 8.95 µM | > 25 µM | 6.74 | > 22.3 µM | 9.23 | > 25 | – | – | – | – |
| CC(C)Oc1cc(O)c2c(c1)OCC=C2CCC(=O)O | – | > 100 µM | – | > 100 | – | 40.2 µM | – | 66 µM | – | > 100 | – | – | – | – |
| CCN(CC)CCNc1n[n+]([O-])c2ccccc2[n+]1[O-] | – | 34.2 µM and 74.1 µM | – | 97.5 | 5.43 µM and 2.55 µM | 37.6 µM and 26.2 µM | – | 50 µM and > 100 µM | – | > 100 | – | – | – | – |
| COC(=O)C1=C(C(=O)OC)SC(=C(Cl)C(=S)Sc2ccccc2N)S1 | 2.03 | 8.6 µM | 19 | 66.2 | 16.7 µM | 34 µM | 29.3 | > 100 µM | 29.6 | > 100 | – | – | – | – |
| CCN(CC)CCCC(C)Nc1c2ccc(C)cc2nc2ccc(OC)cc12 (configuration not stated) | 10.7 | 27.3 µM | 3.26 | 17.2 | 0.837 µM | 11.1 µM | 1.6 | 3.38 µM | 1.94 | 10.8 | – | – | – | – |
| CCOc1c(Cl)cc(CNC(C)C(O)c2ccccc2)cc1OC (configuration not stated) | 41.1 | > 100 µM | 23.5 | 93 | 17.8 µM | 45.2 µM | 16.2 | 32.3 µM | 30.7 | > 100 | – | – | – | – |
| C[C@]12CC[C@@H]3c4ccc(O)cc4C(O)C[C@H]3[C@@H]1CCC2=O (some centres not stated) | > 100 | > 100 µM | > 100 | > 100 | > 100 µM | > 100 µM | > 100 | > 100 µM | > 100 | > 100 | – | – | – | – |
| O=[N+]([O-])c1ccc2c(c1)[O][Sn]([I])([I])[O]2 | – | – | – | – | – | – | – | – | – | – | > 100 | > 100 | > 100 | > 100 |
| Cc1cc(-c2nnc3n2CCCCC3)c(C)n1-c1ccc(Cl)c(Cl)c1 | 7.1 | 20.3 µM | 16.9 | 47 | 4.89 µM | 20.2 µM | 10.3 | 26.9 µM | 11 | 57.1 | – | – | – | – |
| Cc1ccc(NC(=O)Cn2c(Br)nc3c2c(=O)n(C)c(=O)n3C)cc1 | 11.1 | 24 µM | 3.43 | 14.9 | 3.91 µM | 18.3 µM | 9.32 | 21.2 µM | 11.5 | 24.1 | – | – | – | – |
| FCc1ncc(-c2ccc(C(F)(F)F)cc2)c(NC2CCCCCC2)n1 | > 10 | > 10 µM | > 10 | > 10 | > 10 µM | > 10 µM | > 10 | > 10 µM | > 10 | > 10 | – | – | – | – |
| CCCCCCN(CCCCCC)CC(O)c1ccc2c3c(cccc13)CC2 (configuration not stated) | 13.5 | 28.1 µM | 10.8 | 27.2 | 6.01 µM | 20.8 µM | 3.11 | 15.2 µM | 10.9 | 28.7 | – | – | – | – |
| N#CC(NNC(=O)c1ccccc1O)c1cccc(O)c1 (configuration not stated) | – | – | – | – | – | – | – | – | – | – | 11.1 | > 100 | – | – |
| Cc1ccc2c(c1)C(c1cccc3ccccc13)OC2=O (configuration not stated) | – | – | – | – | – | – | – | – | – | – | > 100 | > 100 | – | – |
| O=C1Nc2cccc3cc(NCC(O)CCl)cc1c23 (configuration not stated) | – | > 100 µM | – | > 100 | – | > 100 µM | – | > 100 µM | – | > 100 | – | – | – | – |
| C=C(C=O)CCCC(C)[C@@H]1CCC23CC12CCC1[C@@]2(C)CCC(OC(C)=O)C(C)(C)C2CC(OC2OC(COC(C)=O)C(O)C(O)C2O)[C@]13C (some centres not stated) | – | – | – | – | – | – | – | – | – | – | – | 12.8 | – | – |
| COC(=O)CCC1=C(C)/C(=C/c2[nH]c(-c3ccc[nH]3)cc2OC)N=C1C | 0.493 | 5.45 µM | 1.04 | 9.01 | 0.331 µM | 1.43 µM | 0.454 | 2.5 µM | 0.564 | 12 | – | – | – | – |
| CC1(C)C2CCC3(C2)CS(=O)(=O)N2OC231 (configuration not stated) | – | – | – | – | – | – | – | – | – | – | 26.8 | 30.6 | – | – |
| COc1cc2nc(-c3ccc(C(F)(F)F)cc3)cc(OCCCN3CCCCC3)c2cc1OC | 1.48 | 11.7 µM | 2.15 | 9.94 | 1.16 µM | 4.39 µM | 1.23 | 7.08 µM | 1.34 | 11.2 | – | – | – | – |
| COC(=O)CCCCCN=Cc1c(O)c(O)c(C(C)C)c2cc(C)c(-c3c(C)cc4c(C(C)C)c(O)c(O)c(C=NCCCCCC(=O)OC)c4c3O)c(O)c12 | 3 | > 32.5 µM | 1.68 | > 32.5 | 1.04 µM | 5.83 µM | 1.82 | > 32.5 µM | 1.03 | > 32.5 | – | – | – | – |
